Structures can show the parent of a compound that is named as a salt.

Data set [1] addresses T1, human metastin receptor hOT7T175 (Homo sapiens, UniProt Q969F8, L364H).
T1 construct: encoding the entire length of human metastin receptor hOT7T175; expressed in transfected cells; host or cells: CHO/dhFr- cells (ATCC #CRL-9096) stably transfected with pAKKO-hOT7T175; clone h175-16 was used as whole cells for FLIPR
Put plainly: binding inhibiting activity: 125I-metastin (40-54) binding to cell membrane fraction of h175 KB34 cells. The conditions noted are these: room temperature 60 minutes, read-out: binding inhibiting activity, represented by the IC50 value. How it is done:
cDNA fragments (SEQ ID NO: 2) encoding the entire length of human metastin receptor hOT7T175 were incorporated into expression vector pAKKO1.11H to produce animal cell expression plasmids pAKKO-hOT7T175. CHO/dhFr-cells (ATCC, #CRL-9096) were seeded onto 6 cm culture dishes (Becton Dickinson) at a density of 0.3×10^6 cells/dish, and cultured in the conditions of 48 hours, 37° C. and 5% CO2. 5 μg pAKKO-hOT7T175 plasmid DNA was transfected to the resultant cells by a known method (described in Example 3 of WO 00/24890) using the Cellphect Transfection Kit (Amersham, #27-9268-01). The DNA-transfected cells were cultured in the Dulbecco's modified Eagle medium (DMEM) (Sigma, #D6046) containing 10% dialyzed FBS (Biowest, #S180D), 1× Non-Essential Amino Acid (Invitrogen, #11140-050) and 50 μg/ml Gentamycin (Invitrogen, #15750-060; and cell strains stably expressing the plasmid genes were selected. The obtained 41 clones were treated with the FLIPR assay (in accordance with the method described in Example 3 of WO 00/24890), and the reactivity to the human metastin […] (Nos. 40 to 54 of the human metastin sequence; Peptide Institute, Inc., #4389-v) was evaluated. In the end, h175 KB34 cell strains were selected. By substantially the same method, h175-16 cell strains were also produced.
The h175 KB34 cells were cultured to be on the stage of 40-50% confluency using a cell factory (Nunc, #164327), and then cells were recovered in the following method.
First, the medium was disposed, and the cells were washed twice with 200 ml EDTA/PBS(−). Another 200 ml of EDTA/PBS(−) was added, and the cells were kept still for 20 minutes at room temperature until being peeled off. The cells were recovered into four 50 ml tubes (Becton Dickinson, #352070), and centrifuged (2,000 rpm, 10 min., 4° C.) by a reduced performance centrifuge (TOMY, RL-101). The supernatant was disposed, and the pellets in the four tubes were each suspended with 10 ml EDTA/PBS(−) and collected into one tube (Becton Dickinson, #352070). The pellet was further centrifuged (2,000 rpm, 10 min., 4° C.). The resultant pellet was suspended with 20 ml ice-cooled homogenizer buffer [10 mM NaHCO3, 2 mM EGTA, 0.2 mM magnesium acetate, 10 μg/ml Leupeptin (Peptide Institute, Inc., #4041), 10 μg/ml E-64 (Peptide Institute, Inc., # 4096), 100 μg/ml o-phenanthroline (Dojindo Laboratories), 90 μg/ml PMSF (Wako Pure Chemical Industries, Ltd.), 10 μg/ml Pepstatin A (Peptide Institute, Inc., #4397), pH7.3]. The cell suspension was homogenized 3 times, each for 30 seconds, using a Polytron homogenizer. The resultant homogenate was centrifuged (2,500 rpm, 10 min, 4° C.) using a high performance refrigerated centrifuge (Hitachi, Ltd., CR26H). The supernatant was recovered into a super-centrifuge tube, and super-centrifuged (30,000 rpm, 60 min, 4° C.) using a super-centrifuge (Hitachi, Ltd., SCP70H). 3 ml homogenizer buffer was added to the resultant pellet, and the pellet was suspended by pipetting. 3 ml glycerol (Wako Pure Chemical Industries, Ltd.) was added to the resultant suspension and diluted 2-folds. The resultant substance was used as a cell membrane fraction of the h175 KB34 cells. Each […] of the membrane fraction was put into a 1.5 ml tube (Eppendorf, #0030120.086), stored in a freezer (−30 C) so as not to be frozen, and used for a binding assay.
An assay buffer was prepared on the day of the test by adding, to each 100 ml of an assay basic buffer [20 mM Tris, 2.5 mM Magnesium Acetate, 2 mM EGTA, pH 7.4], 1 mg Leupeptin (Peptide Institute, Inc., 4041), 1 mg E-64 (Peptide Institute, Inc., 4096), 10 mg o-phenanthroline (Dojindo Laboratories), 9 mg PMSF (Wako Pure Chemical Industries, Ltd.) and 1 mg Pepstatin A (Peptide Institute, Inc., 4397). The prepared assay buffer was stored at 4° C. until being used. When the measurement was to be performed with no BSA, the above-described assay buffer was used. […]

T1 sequence (Q969F8 whole entry L364H): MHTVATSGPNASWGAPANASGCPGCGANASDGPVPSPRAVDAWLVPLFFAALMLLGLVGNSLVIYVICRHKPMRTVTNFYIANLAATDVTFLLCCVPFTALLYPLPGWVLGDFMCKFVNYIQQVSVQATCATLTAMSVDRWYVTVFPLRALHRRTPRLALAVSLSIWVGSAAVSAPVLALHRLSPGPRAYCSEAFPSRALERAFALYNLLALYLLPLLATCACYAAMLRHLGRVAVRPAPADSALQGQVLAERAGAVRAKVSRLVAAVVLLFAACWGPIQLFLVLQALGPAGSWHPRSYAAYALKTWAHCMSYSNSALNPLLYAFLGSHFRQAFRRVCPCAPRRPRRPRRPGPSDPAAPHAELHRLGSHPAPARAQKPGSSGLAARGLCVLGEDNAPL

In turn, `CCCC(N)CC(=O)Nc1cccc(-c2cc(-c3ccc(F)cc3O)nc(NC(=O)c3ccco3)c2C#N)c1.Cl` (stereo not shown) [Example 265, N-[4-{3-[(3-aminohexanoyl)amino]phenyl}-3-cyano-6-(4-fluoro-2-hydroxyphenyl)pyridin-2-yl]-2-furamide hydrochloride] gave a melting point of 214 to 217 °C. Moreover, the IC50 in data set [1] is not above 10 µM. In turn, `CCC(N)CC(=O)Nc1cccc(-c2cc(-c3ccc(F)cc3O)nc(NC(=O)c3ccco3)c2C#N)c1.Cl` (stereo not shown) [Example 264, N-[4-{3-[(3-aminopentanoyl)amino]phenyl}-3-cyano-6-(4-fluoro-2-hydroxyphenyl)pyridin-2-yl]-2-furamide hydrochloride] registered a melting point of 212 to 214 °C. Moreover, the IC50 in data set [1] is not above 10 µM. The compound `CC(N)CC(=O)Nc1cccc(-c2cc(-c3ccc(F)cc3O)nc(NC(=O)c3ccco3)c2C#N)c1.Cl` (stereo not shown) [Example 337, N-[4-{3-[(3-aminobutanoyl)amino]phenyl}-3-cyano-6-(4-fluoro-2-hydroxyphenyl)pyridin-2-yl]-2-furamide hydrochloride] showed a melting point of 213 to 215 °C. In addition, in data set [1], the IC50 is not above 10 µM. For `COc1ccccc1C(=O)Nc1nc(-c2ccc(F)cc2O)cc(-c2cccc(C(=O)NCCCn3ccnc3)c2)c1C#N.Cl` [Example 245, N-{3-cyano-6-(4-fluoro-2-hydroxyphenyl)-4-[3-({[3-(1H-imidazol-1-yl)propyl]amino}carbonyl)phenyl]pyridin-2-yl}-2-methoxybenzamide hydrochloride] the same measures were 234 to 235 °C and not above 10 µM. Take `Cl.N#Cc1c(-c2cccc(NC(=O)[C@H]3CCCN3)c2)cc(-c2ccc(F)cc2O)nc1NC(=O)c1nccs1` [Example 292, N-(3-{3-cyano-6-(4-fluoro-2-hydroxyphenyl)-2-[(1,3-thiazol-2-ylcarbonyl)amino]pyridin-4-yl}phenyl)-D-prolinamide hydrochloride]: the melting point fell in the range of 241 to 244 °C. In addition, the IC50 in data set [1] is not above 10 µM. Regarding `CNCCC(=O)Nc1cccc(-c2cc(-c3ccc(F)cc3O)nc(NC(=O)c3ccco3)c2C#N)c1` [Example 313, N-(3-cyano-6-(4-fluoro-2-hydroxyphenyl)-4-{3-[(N-methyl-β-alanyl)amino]phenyl}pyridin-2-yl)-2-furamide hydrochloride], the IC50 in data set [1] is not above 10 µM.

With `N#Cc1c(-c2ccnc(C(=O)NCCN)c2)cc(-c2ccccc2O)nc1NC(=O)c1ccco1` [Example 272, N-(2-aminoethyl)-3′-cyano-2′-(2-furoylamino)-6′-(2-hydroxyphenyl)-4,4′-bipyridine-2-carboxamide dihydrochloride], in data set [1], the concentration for half-maximal inhibition (IC50) is not above 10 µM. For `N#Cc1c(-c2cccc(NC(=O)[C@@H]3CCCC[C@H]3N)c2)cc(-c2ccc(F)cc2O)nc1NC(=O)c1ccco1` (racemic) [Example 277, N-{4-[3-({[(1SR,2SR)-2-aminocyclohexyl]carbonyl}amino)phenyl]-3-cyano-6-(4-fluoro-2-hydroxyphenyl)pyridin-2-yl}-2-furamide hydrochloride], in data set [1], the IC50 is not above 10 µM. Regarding `N#Cc1c(-c2cc(NC(=O)CCN)ccc2Cl)cc(-c2ccccc2O)nc1NC(=O)c1cccs1` [Example 42, N-{4-[5-(β-alanylamino)-2-chlorophenyl]-3-cyano-6-(2-hydroxyphenyl)pyridin-2-yl}thiophene-2-carboxamide dihydrochloride], in data set [1], the half-maximal inhibitory concentration (IC50) is not above 10 µM. Turning to `N#Cc1c(-c2cccc(NC(=O)CCN)c2)cc(-c2ccc(F)cc2O)nc1NC(=O)c1cccs1` [Example 58, N-{4-[3-(β-alanylamino)phenyl]-3-cyano-6-(4-fluoro-2-hydroxyphenyl)pyridin-2-yl}thiophene-2-carboxamide hydrochloride], the IC50 in data set [1] was not above 10 µM. With `N#Cc1c(-c2cccc(CN3CCNCC3)c2)cc(-c2ccc(F)cc2O)nc1NC(=O)c1ccco1` [Example 325, N-{3-cyano-6-(4-fluoro-2-hydroxyphenyl)-4-[3-(piperazine-1-ylmethyl)phenyl]pyridin-2-yl}-2-furamide ditrifluoroacetic acid], the concentration for half-maximal inhibition (IC50) in data set [1] was not above 10 µM. Regarding `COc1ccc(-c2cc(-c3cccc(NC(=O)CCN)c3)c(C#N)c(NC(=O)c3ccccc3)n2)c(O)c1` [Example 50, N-{4-[3-(β-alanylamino)phenyl]-3-cyano-6-(2-hydroxy-4-methoxyphenyl)pyridin-2-yl}benzamide trifluoroacetate], the IC50 in data set [1] is not above 10 µM. The same measure, in the same setting: for `COc1c(NC(=O)CCN)cccc1-c1cc(-c2ccccc2O)nc(NC(=O)c2ccco2)c1C#N` [Example 276, N-[4-[3-(β-alanylamino)-2-methoxyphenyl]-3-cyano-6-(2-hydroxyphenyl)pyridin-2-yl]-2-furamide hydrochloride] the value was not above 10 µM; for `CN(C)CC(=O)Nc1cccc(-c2cc(-c3ccc(F)cc3O)nc(NC(=O)c3ccco3)c2CN(C)C)c1` [Example 300, N-[3-[(dimethylamino)methyl]-4-{3-[(N,N-dimethylglycyl)amino]phenyl}-6-(4-fluoro-2-hydroxyphenyl)pyridin-2-yl]-2-furamide dihydrochloride], not above 10 µM. As for `Cl.N#Cc1c(-c2cccc(NC(=O)CC3CCCCN3)c2)cc(-c2ccc(F)cc2O)nc1NC(=O)c1ccco1` (stereo not shown) [Example 290, hydrochloride], in data set [1], the 50% inhibitory concentration (IC50) is not above 10 µM.

`CN1CCN(Cc2cccc(-c3cc(-c4ccc(F)cc4O)nc(NC(=O)c4ccco4)c3C#N)c2)CC1` [Example 333, N-(3-cyano-6-(4-fluoro-2-hydroxyphenyl)-4-{3-[(4-methylpiperazin-1-yl)methyl]phenyl}pyridin-2-yl)-2-furamide dihydrochloride]: the IC50 in data set [1] was not above 10 µM. The same measure, in the same setting: the figure for `N#Cc1c(-c2cccc(NC(=O)[C@H](N)Cc3cnc[nH]3)c2)cc(-c2ccc(Cl)cc2O)nc1NC(=O)c1ccco1` [Example 253, N-{3-[6-(4-chloro-2-hydroxyphenyl)-3-cyano-2-(2-furoylamino)pyridin-4-yl]phenyl}-D-histidinamide dihydrochloride] is not above 10 µM; for `N#Cc1c(-c2cccc(C(=O)NCCN)c2)cc(-c2ccc(F)cc2O)nc1NC(=O)c1ccco1` [Example 66, N-[4-(3-{[(2-aminoethyl)amino]carbonyl}phenyl)-3-cyano-6-(4-fluoro-2-hydroxyphenyl)pyridin-2-yl]-2-furamide hydrochloride] it is not above 10 µM. Still for that read-out and setting: the figure for `N#Cc1c(-c2cccc(NC(=O)CCN)c2)cc(-c2ccc(Cl)cc2O)nc1NC(=O)c1cccs1` [Example 56, N-{4-[3-(β-alanylamino)phenyl]-6-(4-chloro-2-hydroxyphenyl)-3-cyanopyridin-2-yl}thiophene-2-carboxamide trifluoroacetate] is not above 10 µM. With `N#Cc1c(-c2cccc(NC(=O)CCN)c2)cc(-c2ccc(Cl)cc2O)nc1NC(=O)c1ccccc1` [Example 51, N-{4-[3-(β-alanylamino)phenyl]-6-(4-chloro-2-hydroxyphenyl)-3-cyanopyridin-2-yl}benzamide trifluoroacetate], in data set [1], the IC50 is not above 10 µM.

By melting point is commonly meant the temperature of the solid-liquid transition. In general, IC50 refers to the point on the concentration scale where inhibition reaches its midpoint.

The values above are taken from patent US20090156646A1, “PYRIDYLPHENOL COMPOUND AND USE THEREOF” (TAKEDA PHARMACEUTICAL COMPANY LIMITED, priority 2005, published 2009).
